Laboratory results as given in patent US20100168008A1, “METHOD OF USE OF EPIREGULIN PROTEIN AND NUCLEIC ACID ENCODING THE SAME IN INFLAMMATORY CONDITIONS” (PIRAMAL LIFE SCIENCES LIMITED., priority 2006, published 2010).

How the values were obtained:
[1] = tested on: EREG expression in PBMCs; test: EREG expression in PBMCs after exposure to anti-inflammatory agent, microarray based expression profiling; format: cell-based, Human
Protocol: Exposure of PBMCs to P979 and Rolipram: Human peripheral blood leukocytes were obtained from normal blood donors by density gradient separation, washed with PBS (phosphate buffered saline), and plated on petri dishes using RPMI medium. Cells were treated for 30 minutes with test compounds at concentrations 0.3, 1.0 and 3.0 μM and with Rolipram at 300 μM as a control as shown in the results section and subsequently activated with bacterial lipopolysaccharide (LPS). After 2 hours, cells were harvested and RNA was prepared.
Preparation of RNA: RNA was prepared by adding 1 ml of trizol reagent (Sigma) subsequently purified using Qiagen-RNAEasy kit, using the instruction from manufacturer's protocol. Quality and quantity of RNA was measured by spectrometry and gel electrophoresis.
Gene expression profiling by microarray: A total of 10 μg of RNA was used to generate cRNA, which is subsequently labeled with Cy3 or Cy5 fluorescent dyes. Control and test cRNAs labeled with Cy3 and Cy5 respectively were pooled and hybridized to DNA chip. […] Following image analysis, image intensity for each of the 23, 290 spots were measured for test and control slides.
Gene expression was expressed as a ratio of the image intensity between test and control slide for a given gene (Table 3). […]

[2] = tested on: EREG expression in PBMC; test: EREG expression in PBMC by real time polymerase chain reaction (RT-PCR); format: cell-based, Human; details: 10 μM drug
Protocol: Exposure of PBMCs to P979 and Rolipram: Human peripheral blood leukocytes were obtained from normal blood donors by density gradient separation, washed with PBS (phosphate buffered saline), and plated on petri dishes using RPMI medium. […] After 2 hours, cells were harvested and RNA was prepared.
Real Time Polymerase Chain Reaction (RT-PCR): To confirm the data obtained from microarray, we performed RT-PCR using specific primers for epiregulin gene.
EREG expression in PBMCs after exposure to anti-inflammatory agent was confirmed by real time polymerase chain reaction (RT-PCR). Microarray based gene expression profiling studied large-scale gene expression. RT PCR focused on the gene/genes of interest and expression analysis was carried out under similar experimental conditions.
The aliquot of RNA samples as used for microarray study was used for RT-PCR analysis. The experiment was carried out using cMaster™ RTplusPCR System kit from Eppendorf using the protocol as provided in the kit. Briefly, cDNA was synthesized using RNA from various sources as shown in the results and subsequently quantified during amplification step by incorporation of Syber green dye into the amplicons.

`COc1ccc(C2CNC(=O)C2)cc1OC1CCCC1` (stereo not drawn) [Rolipram] was tested, and the “Ratio intensity (EREG expression, test vs control slide)” value ([1]; 300 μM drug, 30 minutes, then LPS activation, harvested after 2 hours) was 1.03, the “expression of epiregulin gene up-regulated (in words)” value ([1]; microarray) was “not” and the “Log-fold Change (EREG expression)” value [2] was 1.2.
